Assay results: US4321265A, “7α-Methoxycephalosporins” (Toyama Chemical Co., Ltd., priority 1977, dated 1982)
≈ marks a conversion by molar mass, not a printed value.

Assays:
Assay in all cases: Minimum inhibitory concentration (MIC), Heart Infusion agar
Assay type in all cases: cell-based
Citrobacter N-7 = details: N7; Citrobacter N-7; 10^6 cells/ml; 20 hours, 37° C.; read-out: minimum inhibitory concentration (MIC)
Description: (§1) Antibacterial activities of the representative compounds (Ib) of the 7α-methoxycephalosporins according to this invention are shown in Table 1. [drawing 20]
(§2) The figures given in Table 1 represent the minimum inhibitory concentration (MIC in mcg/ml) of each compound, which was determined according to the method described in "Chemotherapy (Society of Chemotherapy, Japan), Vol. 16, 98-99 (1968)": A culture obtained by cultivating the test bacterium in a Heart Infusion broth (Eiken Kagaku Co.) was inoculated into a Heart Infusion agar medium (Eiken Kagaku Co.). After 20 hours of the incubation at 37° C., the growth of the bacterium was inspected to determine the minimum inhibitory concentration (MIC in mcg/ml). The inoculation rate of the bacterium was 10^4 cells/plate (10^6 cells/ml).
(§3) (1) Minimum inhibitory concentration (MIC in mcg/ml).

K. pneumoniae Y-50 = details: Klebsiella pneumoniae, Y50; K. pneumoniae Y-50; 10^6 cells/ml; 20 hours, 37° C.; read-out: minimum inhibitory concentration (MIC)
Description: as §1, §2, §3

Ser. marcescens W-8 = details: Serratia marcescens, W8; Ser. marcescens W-8; 10^6 cells/ml; 20 hours, 37° C.; read-out: minimum inhibitory concentration (MIC)
Description: as §1, §2, §3

Prot. vulgaris GN-76 = details: Proteus vulgaris, GN76; Prot. vulgaris GN-76; 10^6 cells/ml; 20 hours, 37° C.; read-out: minimum inhibitory concentration (MIC)
Description: as §1, §2, §3

Ent. cloacae IID977 = details: Enterobacter cloacae; Ent. cloacae IID977; 10^6 cells/ml; 20 hours, 37° C.; read-out: minimum inhibitory concentration (MIC)
Description: as §1, §2, §3

[1] = system: Acinetobacter caloaceticus A-6; details: A6; Acinetobacter caloaceticus A-6; 10^6 cells/ml; 20 hours, 37° C.; read-out: minimum inhibitory concentration (MIC)
Description: as §1, §2, §3

[2] = system: C. freundii GN-346 (Cephalosporinase-producing bacterium); details: Citrobacter freundii, GN346; C. freundii GN-346; 10^6 cells/ml; 20 hours, 37° C.; read-out: minimum inhibitory concentration (MIC)
Description: as §1, §2, §3

Klebsiella spp. Y-72 = details: SPP.Y72; Klebsiella spp. Y-72; 10^6 cells/ml; 20 hours, 37° C.; read-out: minimum inhibitory concentration (MIC)
Description: as §1, §2, §3

[3] = system: S. aureus F-19 (Penicillinase-producing bacterium); details: Staphylococcus aureus; S. aureus F-19; 10^6 cells/ml; 20 hours, 37° C.; read-out: minimum inhibitory concentration (MIC)
Description: as §1, §2, §3

Ser. marcescens IID620 = details: Serratia marcescens; Ser. marcescens IID620; 10^6 cells/ml; 20 hours, 37° C.; read-out: minimum inhibitory concentration (MIC)
Description: as §1, §2, §3

Ps. aeruginosa IFO-3445 = details: Pseudomonas aeruginosa, IFO3445; Ps. aeruginosa IFO-3445; 10^6 cells/ml; 20 hours, 37° C.; read-out: minimum inhibitory concentration (MIC)
Description: as §1, §2, §3

E. coli NIHJ = details: Escherichia coli; E. coli NIHJ; 10^6 cells/ml; 20 hours, 37° C.; read-out: minimum inhibitory concentration (MIC)
Description: as §1, §2, §3

Ps. aeruginosa S-68 = details: Pseudomonas aeruginosa, S68; Ps. aeruginosa S-68; 10^6 cells/ml; 20 hours, 37° C.; read-out: minimum inhibitory concentration (MIC)
Description: as §1, §2, §3

Ser. marcescens W-35 = details: Serratia marcescens, W35, 20 h, Ser. marcescens W-35; 10^6 cells/ml; 20 hours, 37° C. (Table 1); read-out: minimum inhibitory concentration (MIC)
Description: as §1
The figures given in Table 1 represent the minimum inhibitory concentration (MIC in mcg/ml) of each compound, which was determined according to the method described in "Chemotherapy (Society of Chemotherapy, Japan), Vol. 16, 98-99 (1968)": A culture obtained by cultivating the test bacterium in a Heart Infusion broth (Eiken Kagaku Co.) was inoculated into a Heart Infusion agar medium (Eiken Kagaku Co.). After 20 hours of the incubation at 37° C., the growth of the bacterium was inspected to determine the minimum inhibitory concentration (MIC in mcg/ml). […]
as §3

| Structure (SMILES) | MIC (Citrobacter N-7) [µg/mL] | MIC (K. pneumoniae Y-50) [µg/mL] | MIC (Ser. marcescens W-8) [µg/mL] | MIC (Prot. vulgaris GN-76) [µg/mL] | MIC (Ent. cloacae IID977) [µg/mL] | MIC [1] [µg/mL] | MIC [2] [µg/mL] | MIC (Klebsiella spp. Y-72) [µg/mL] | MIC [3] [µg/mL] | MIC (Ser. marcescens IID620) [µg/mL] | MIC (Ps. aeruginosa IFO-3445) [µg/mL] | MIC (E. coli NIHJ) [µg/mL] | MIC (Ps. aeruginosa S-68) [µg/mL] | MIC (Ser. marcescens W-35) [µg/mL] |
| --- | --- | --- | --- | --- | --- | --- | --- | --- | --- | --- | --- | --- | --- | --- |
| CCN1CCN(C(=O)NC(C(=O)N[C@]2(OC)C(=O)N3C(C(=O)O)=C(CSc4nnnn4CC(=O)O)CS[C@@H]32)c2cccs2)C(=O)C1=O (stereo partly drawn) | 1.56 (≈ 2.2 µM) | 6.25 (≈ 8.81 µM) | 50 (≈ 70.4 µM) | 0.78 (≈ 1.1 µM) | 25 (≈ 35.2 µM) | 25 (≈ 35.2 µM) | 50 (≈ 70.4 µM) | 25 (≈ 35.2 µM) | 6.25 (≈ 8.81 µM) | 0.78 (≈ 1.1 µM) | 25 (≈ 35.2 µM) | ≤ 0.1 | 50 (≈ 70.4 µM) | 100 (≈ 141 µM) |
| CCN1CCN(C(=O)NC(C(=O)N[C@]2(OC)C(=O)N3C(C(=O)O)=C(CSc4nnnn4CCO)CS[C@@H]32)c2cccs2)C(=O)C1=O (stereo partly drawn) | 1.56 (≈ 2.24 µM) | 0.39 (≈ 0.561 µM) | 50 (≈ 71.9 µM) | 0.39 (≈ 0.561 µM) | 25 (≈ 35.9 µM) | 6.25 (≈ 8.98 µM) | 12.5 (≈ 18 µM) | 1.56 (≈ 2.24 µM) | 3.13 (≈ 4.5 µM) | 0.2 (≈ 0.287 µM) | 12.5 (≈ 18 µM) | ≤ 0.1 | 12.5 (≈ 18 µM) | 12.5 (≈ 18 µM) |
| CCN1CCN(C(=O)NC(C(=O)N[C@]2(OC)C(=O)N3C(C(=O)O)=C(CSc4nnnn4CCN)CS[C@@H]32)c2cccs2)C(=O)C1=O (stereo partly drawn) | 3.13 (≈ 4.51 µM) | 0.78 (≈ 1.12 µM) | 50 (≈ 72 µM) | 0.78 (≈ 1.12 µM) | 50 (≈ 72 µM) | 12.5 (≈ 18 µM) | 25 (≈ 36 µM) | 3.13 (≈ 4.51 µM) | 6.25 (≈ 9 µM) | 0.2 (≈ 0.288 µM) | 12.5 (≈ 18 µM) | ≤ 0.1 | 12.5 (≈ 18 µM) | 6.25 (≈ 9 µM) |
| CCN1CCN(C(=O)NC(C(=O)N[C@]2(OC)C(=O)N3C(C(=O)O)=C(CSc4nnnn4CC(C)=NO)CS[C@@H]32)c2cccs2)C(=O)C1=O (stereo partly drawn) | 6.25 (≈ 8.65 µM) | 0.78 (≈ 1.08 µM) | 50 (≈ 69.2 µM) | 0.78 (≈ 1.08 µM) | 25 (≈ 34.6 µM) | 12.5 (≈ 17.3 µM) | 50 (≈ 69.2 µM) | 6.25 (≈ 8.65 µM) | 3.13 (≈ 4.33 µM) | 0.2 (≈ 0.277 µM) | 25 (≈ 34.6 µM) | ≤ 0.1 | 12.5 (≈ 17.3 µM) | 25 (≈ 34.6 µM) |
| CCN1CCN(C(=O)NC(C(=O)N[C@]2(OC)C(=O)N3C(C(=O)O)=C(CSc4nnnn4CC(C)=O)CS[C@@H]32)c2cccs2)C(=O)C1=O (stereo partly drawn) | 6.25 (≈ 8.83 µM) | 0.39 (≈ 0.551 µM) | 50 (≈ 70.6 µM) | 0.78 (≈ 1.1 µM) | 50 (≈ 70.6 µM) | 25 (≈ 35.3 µM) | 25 (≈ 35.3 µM) | 6.25 (≈ 8.83 µM) | 6.25 (≈ 8.83 µM) | 0.2 (≈ 0.283 µM) | 25 (≈ 35.3 µM) | ≤ 0.1 | 25 (≈ 35.3 µM) | 25 (≈ 35.3 µM) |
| CCN1CCN(C(=O)NC(C(=O)N[C@]2(OC)C(=O)N3C(C(=O)O)=C(CSc4nnnn4CC(=O)NO)CS[C@@H]32)c2cccs2)C(=O)C1=O (stereo partly drawn) | 50 (≈ 69 µM) | 1.56 (≈ 2.15 µM) | 100 (≈ 138 µM) | 0.78 (≈ 1.08 µM) | 200 (≈ 276 µM) | 1.56 (≈ 2.15 µM) | ≥ 200 | 100 (≈ 138 µM) | 25 (≈ 34.5 µM) | 0.78 (≈ 1.08 µM) | 12.5 (≈ 17.2 µM) | ≤ 0.1 | 25 (≈ 34.5 µM) | 200 (≈ 276 µM) |
| CCN1CCN(C(=O)NC(C(=O)N[C@]2(OC)C(=O)N3C(C(=O)O)=C(CSc4nnnn4C)CS[C@@H]32)C2=CCC=CC2)C(=O)C1=O (stereo partly drawn) | 6.25 (≈ 9.45 µM) | 0.78 (≈ 1.18 µM) | 100 (≈ 151 µM) | 3.13 (≈ 4.73 µM) | 25 (≈ 37.8 µM) | 6.25 (≈ 9.45 µM) | 25 (≈ 37.8 µM) | 12.5 (≈ 18.9 µM) | 3.13 (≈ 4.73 µM) | 0.78 (≈ 1.18 µM) | 12.5 (≈ 18.9 µM) | ≤ 0.1 | 25 (≈ 37.8 µM) | 50 (≈ 75.6 µM) |
| CCN1CCN(C(=O)N[C@@H](C(=O)N[C@]2(OC)C(=O)N3C(C(=O)O)=C(COC(C)=O)CS[C@@H]32)c2cccs2)C(=O)C1=O [OCOCH3, 7β-[D(-)-α-(4-ethyl-2,3-dioxo-1-piperazinecarboxamido)-α-(2-thienyl)-acetamido]-7α-methoxy-3-acetoxymethyl-Δ^3-cephem-4-carboxylic acid] | 3.13 (≈ 5.13 µM) | 1.56 (≈ 2.56 µM) | 100 (≈ 164 µM) | 1.56 (≈ 2.56 µM) | 50 (≈ 82 µM) | 25 (≈ 41 µM) | 100 (≈ 164 µM) | 6.25 (≈ 10.3 µM) | 6.25 (≈ 10.3 µM) | 3.13 (≈ 5.13 µM) | 50 (≈ 82 µM) | ≤ 0.1 | 50 (≈ 82 µM) | 50 (≈ 82 µM) |
| CCN1CCN(C(=O)NC(C(=O)N[C@]2(OC)C(=O)N3C(C(=O)O)=C(CSc4nnnn4C)CS[C@@H]32)c2cccs2)C(=O)C1=O (stereo partly drawn) [drawing 22] | 0.78 (≈ 1.17 µM) | 0.39 (≈ 0.586 µM) | 25 (≈ 37.6 µM) | 0.2 (≈ 0.3 µM) | 25 (≈ 37.6 µM) | 12.5 (≈ 18.8 µM) | 25 (≈ 37.6 µM) | 6.25 (≈ 9.39 µM) | 3.13 (≈ 4.7 µM) | 0.78 (≈ 1.17 µM) | 12.5 (≈ 18.8 µM) | ≤ 0.1 | 12.5 (≈ 18.8 µM) | 6.25 (≈ 9.39 µM) |
